In patent publication US5543429A, “Antifungal agents” (Merck & Co., Inc., priority 1995, dated 1996):
In brackets after ≈: the same amount, converted by molar mass.

Legend:
[1] = system: Candida parapsilosis MY1010; experiment: broth microdilution assay (MIC/MFC); details: Lodderomyces parapsilosis; for MIC: MY1010, 24 h, read-out: Minimum Inhibitory Concentration (MIC); for MFC: MY1010, read-out: Minimum Fungicidal Concentration (MFC)
Alternaria solani = experiment: in vivo protectant assay, early blight on tomato; details: A. solani, miniature plant assay
Phytophthora infestans = type: in vivo; details: P. infestans, miniature plant assay
[2] = system: Saccharomyces cerevisiae MY2141; experiment: broth microdilution assay (MIC/MFC); details: for MIC: MY2141, 24 h, read-out: Minimum Inhibitory Concentration (MIC); for MFC: MY2141, read-out: Minimum Fungicidal Concentration (MFC)
[3] = system: Candida tropicalis MY1124; experiment: broth microdilution assay (MIC/MFC); details: for MIC: MY1124, 24 h, read-out: Minimum Inhibitory Concentration (MIC); for MFC: MY1124, read-out: Minimum Fungicidal Concentration (MFC)
Candida albicans CLY539 = experiment: broth microdilution assay (MIC/MFC); details: for MIC: CLY539, 24 h, read-out: Minimum Inhibitory Concentration (MIC); for MFC: CLY539, read-out: Minimum Fungicidal Concentration (MFC)
[4] = system: Candida guillermondii MY1019; experiment: broth microdilution assay (MIC/MFC); details: for MIC: MY1019, 24 h, read-out: Minimum Inhibitory Concentration (MIC); for MFC: MY1019, read-out: Minimum Fungicidal Concentration (MFC)
panel of seven pathogens = experiment: in vivo protectant assay, panel of seven phytopathogens
Plasmopara viticola = experiment: in vivo protectant assay, downy mildew on grape; details: P. viticola
[5] = system: Candida tropicalis MY1012; experiment: broth microdilution assay (MIC/MFC); details: for MIC: MY1012, 24 h, read-out: Minimum Inhibitory Concentration (MIC); for MFC: MY1012, read-out: Minimum Fungicidal Concentration (MFC)
[6] = system: Aspergillus fumigatus MY4839; experiment: broth microdilution assay (MIC/MFC); details: MY4839, 24 h, read-out: Minimum Inhibitory Concentration (MIC)
Candida glabrata MY1381 = experiment: broth microdilution assay (MIC/MFC); details: Nakaseomyces glabratus; for MIC: MY1381, 24 h, read-out: Minimum Inhibitory Concentration (MIC); for MFC: MY1381, read-out: Minimum Fungicidal Concentration (MFC)
Puccinia recondita = experiment: in vivo protectant assay, wheat leaf rust on wheat; details: P. recondita, scaled up, high spray volume assay, 100 ppm
[7] = system: Saccharomyces cerevisiae MY2140; experiment: broth microdilution assay (MIC/MFC); details: for MIC: MY2140, 24 h, read-out: Minimum Inhibitory Concentration (MIC); for MFC: MY2140, read-out: Minimum Fungicidal Concentration (MFC)
Septoria nodorum = experiment: in vivo protectant assay, glume blotch on wheat; details: S. nodorum, scaled up, high spray volume assay, 100 ppm
[8] = system: Candida pseudotropicalis MY2099; experiment: broth microdilution assay (MIC/MFC); details: Kluyveromyces marxianus; for MIC: MY2099, 24 h, read-out: Minimum Inhibitory Concentration (MIC); for MFC: MY2099, read-out: Minimum Fungicidal Concentration (MFC)
[9] = system: Cryptococcus neoformans MY2062; experiment: broth microdilution assay (MIC/MFC); details: MY2062, 48 h; for MFC: read-out: Minimum Fungicidal Concentration (MFC); for MIC: read-out: Minimum Inhibitory Concentration (MIC)
[10] = system: Aspergillus fumigatus MY5668; experiment: broth microdilution assay (MIC/MFC); details: MY5668, 24 h, read-out: Minimum Inhibitory Concentration (MIC)
Candida albicans MY1055 = experiment: broth microdilution assay (MIC/MFC); details: for MIC: MY1055, 24 h, read-out: Minimum Inhibitory Concentration (MIC); for MFC: MY1055, read-out: Minimum Fungicidal Concentration (MFC)
[11] = system: Cryptococcus neoformans MY2061; experiment: broth microdilution assay (MIC/MFC); details: MY2061, 48 h; for MFC: read-out: Minimum Fungicidal Concentration (MFC); for MIC: read-out: Minimum Inhibitory Concentration (MIC)
[12] = system: Aspergillus flavus, Fusarium oxysporum, Ustilago zeae and the like; experiment: agar plate inhibition zone test with filamentous fungi; type: cell-based; details: agar plates, 28°C or 37°C, 24 hours
Botrytis cinerea = experiment: in vivo protectant assay, grey mold on pepper; details: B. cinerea
Candida albicans CA2 = experiment: broth microdilution assay (MIC/MFC); details: for MIC: CA2, 24 h, read-out: Minimum Inhibitory Concentration (MIC); for MFC: CA2, read-out: Minimum Fungicidal Concentration (MFC)
[13] = scaled up, high spray volume assay, 100 ppm

## C=CC1=CCC2C(CC3OC(=O)C4(C)C(O)CCC2(C)C34O)C1C (stereo not drawn) [Compound II]
[1]
  MIC: 8 µg/mL (≈ 24.1 µM)
  MFC: 8 µg/mL (≈ 24.1 µM)
Alternaria solani
  percent control of disease: 80-95%
Phytophthora infestans
  percent control of disease: 80-95%
[2]
  MIC: 0.5 µg/mL (≈ 1.5 µM)
  MFC: 1 µg/mL (≈ 3.01 µM)
[3]
  MIC: 4 µg/mL (≈ 12 µM)
  MFC: 8 µg/mL (≈ 24.1 µM)
Candida albicans CLY539
  MIC: 2 µg/mL (≈ 6.02 µM)
  MFC: 2 µg/mL (≈ 6.02 µM)
[4]
  MIC: 8 µg/mL (≈ 24.1 µM)
  MFC: 16 µg/mL (≈ 48.1 µM)
Panel of seven pathogens
  control of phytopathogens: very efficacious at controlling six of the phytopathogens
Plasmopara viticola; miniature plant assay
  percent control of disease: 80-95%
Plasmopara viticola; protectant assay, 11 ppm
  percent control of disease: 50-85%
Plasmopara viticola; [13]
  percent control of disease: 100%
[5]
  MIC: 2 µg/mL (≈ 6.02 µM)
  MFC: 2 µg/mL (≈ 6.02 µM)
[6]
  MIC: 2 µg/mL (≈ 6.02 µM)
Candida glabrata MY1381
  MIC: 4 µg/mL (≈ 12 µM)
  MFC: 4 µg/mL (≈ 12 µM)
Puccinia recondita
  percent control of disease: 100%
[7]
  MIC: 1 µg/mL (≈ 3.01 µM)
  MFC: 2 µg/mL (≈ 6.02 µM)
Septoria nodorum
  percent control of disease: 60%
[8]
  MIC: 1 µg/mL (≈ 3.01 µM)
  MFC: 2 µg/mL (≈ 6.02 µM)
[9]
  MFC: 1 µg/mL (≈ 3.01 µM)
  MIC: 1 µg/mL (≈ 3.01 µM)
[10]
  MIC: 1 µg/mL (≈ 3.01 µM)
Candida albicans MY1055
  MIC: 2 µg/mL (≈ 6.02 µM)
  MFC: 4 µg/mL (≈ 12 µM)
[11]
  MFC: 1 µg/mL (≈ 3.01 µM)
  MIC: 2 µg/mL (≈ 6.02 µM)
[12]
  inhibition of growth of filamentous fungi: effectively inhibit growth of the fungal organisms
Botrytis cinerea; miniature plant assay
  percent control of disease: 80-95%
Botrytis cinerea; protectant assay, 11 ppm
  percent control of disease: 50-85%
Botrytis cinerea; [13]
  percent control of disease: 100%
Candida albicans CA2
  MIC: 32 µg/mL (≈ 96.3 µM)
  MFC: 4 µg/mL (≈ 12 µM)

## C=CC1C(=C)CCC2C1CC1OC(=O)C3(C)C(O)CCC2(C)C13O (stereo not drawn) [Compound I]
[1]
  MIC: 8 µg/mL (≈ 24.1 µM)
  MFC: 32 µg/mL (≈ 96.3 µM)
[2]
  MIC: 1 µg/mL (≈ 3.01 µM)
  MFC: 8 µg/mL (≈ 24.1 µM)
[3]
  MIC: 8 µg/mL (≈ 24.1 µM)
  MFC: 16 µg/mL (≈ 48.1 µM)
Candida albicans CLY539
  MIC: 4 µg/mL (≈ 12 µM)
  MFC: 2 µg/mL (≈ 6.02 µM)
[4]
  MIC: 8 µg/mL (≈ 24.1 µM)
  MFC: 16 µg/mL (≈ 48.1 µM)
Plasmopara viticola; 200 ppm
  percent control of disease: up to 80%
[5]
  MIC: 2 µg/mL (≈ 6.02 µM)
  MFC: 2 µg/mL (≈ 6.02 µM)
[6]
  MIC: 4 µg/mL (≈ 12 µM)
Candida glabrata MY1381
  MIC: 8 µg/mL (≈ 24.1 µM)
  MFC: 8 µg/mL (≈ 24.1 µM)
[7]
  MIC: 2 µg/mL (≈ 6.02 µM)
  MFC: 8 µg/mL (≈ 24.1 µM)
[8]
  MIC: 4 µg/mL (≈ 12 µM)
  MFC: 4 µg/mL (≈ 12 µM)
[9]
  MFC: 0.25 µg/mL (≈ 0.752 µM)
  MIC: 0.25 µg/mL (≈ 0.752 µM)
[10]
  MIC: 8 µg/mL (≈ 24.1 µM)
Candida albicans MY1055
  MIC: 2 µg/mL (≈ 6.02 µM)
  MFC: 4 µg/mL (≈ 12 µM)
[11]
  MFC: 0.25 µg/mL (≈ 0.752 µM)
  MIC: 0.5 µg/mL (≈ 1.5 µM)
[12]
  inhibition of growth of filamentous fungi: effectively inhibit growth of the fungal organisms
Botrytis cinerea; 200 ppm
  percent control of disease: up to 80%
Candida albicans CA2
  MIC: 8 µg/mL (≈ 24.1 µM)
  MFC: 8 µg/mL (≈ 24.1 µM)

## C[C@@H]1[C@H](O)[C@@H](C)/C=C/C=C/C=C/C=C/C=C/C=C/C=C/[C@H](O[C@@H]2O[C@H](C)[C@@H](O)[C@H](N)[C@@H]2O)C[C@@H]2O[C@](O)(C[C@@H](O)C[C@@H](O)[C@H](O)CC[C@@H](O)C[C@@H](O)CC(=O)O[C@H]1C)C[C@H](O)[C@H]2C(=O)O [Amphotericin B, amphotericin B, reference compound]
[1]
  MIC: 1 µg/mL (≈ 1.08 µM)
  MFC: 1 µg/mL (≈ 1.08 µM)
[2]
  MIC: 1 µg/mL (≈ 1.08 µM)
  MFC: 1 µg/mL (≈ 1.08 µM)
[3]
  MIC: 2 µg/mL (≈ 2.16 µM)
  MFC: 2 µg/mL (≈ 2.16 µM)
Candida albicans CLY539
  MIC: 1 µg/mL (≈ 1.08 µM)
  MFC: 2 µg/mL (≈ 2.16 µM)
[4]
  MIC: 1 µg/mL (≈ 1.08 µM)
  MFC: 2 µg/mL (≈ 2.16 µM)
[5]
  MIC: 16 µg/mL (≈ 17.3 µM)
  MFC: 16 µg/mL (≈ 17.3 µM)
[6]
  MIC: 2 µg/mL (≈ 2.16 µM)
Candida glabrata MY1381
  MIC: 2 µg/mL (≈ 2.16 µM)
  MFC: 2 µg/mL (≈ 2.16 µM)
[7]
  MIC: 1 µg/mL (≈ 1.08 µM)
  MFC: 1 µg/mL (≈ 1.08 µM)
[8]
  MIC: 2 µg/mL (≈ 2.16 µM)
  MFC: 2 µg/mL (≈ 2.16 µM)
[9]
  MIC: 1 µg/mL (≈ 1.08 µM)
[10]
  MIC: 2 µg/mL (≈ 2.16 µM)
Candida albicans MY1055
  MIC: 1 µg/mL (≈ 1.08 µM)
  MFC: 1 µg/mL (≈ 1.08 µM)
Candida albicans CA2
  MIC: 1 µg/mL (≈ 1.08 µM)
  MFC: 1 µg/mL (≈ 1.08 µM)
